This note sets out measurements from ChEMBL document CHEMBL1140205, “Discovery and development of fatty acid amide hydrolase (FAAH) inhibitors” (J Med Chem, 2008).

One assay concerns the target T1, Fatty-acid amide hydrolase 1 (Homo sapiens, UniProt O00519).
T1 sequence (O00519 whole entry): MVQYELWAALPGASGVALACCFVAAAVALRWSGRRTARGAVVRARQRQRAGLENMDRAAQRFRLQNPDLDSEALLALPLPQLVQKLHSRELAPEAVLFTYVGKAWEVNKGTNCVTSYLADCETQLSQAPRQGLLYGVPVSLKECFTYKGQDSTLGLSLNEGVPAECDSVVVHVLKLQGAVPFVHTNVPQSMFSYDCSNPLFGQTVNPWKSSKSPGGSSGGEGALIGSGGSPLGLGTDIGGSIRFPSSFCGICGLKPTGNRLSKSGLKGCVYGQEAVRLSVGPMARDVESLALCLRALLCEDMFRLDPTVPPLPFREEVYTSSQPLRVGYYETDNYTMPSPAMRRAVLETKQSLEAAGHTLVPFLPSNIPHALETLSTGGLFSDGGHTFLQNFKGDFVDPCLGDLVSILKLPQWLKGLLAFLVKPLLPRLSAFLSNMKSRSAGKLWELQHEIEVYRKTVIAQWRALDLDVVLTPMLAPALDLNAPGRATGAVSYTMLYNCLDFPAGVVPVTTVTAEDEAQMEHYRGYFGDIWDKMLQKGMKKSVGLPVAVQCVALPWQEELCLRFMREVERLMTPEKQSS
Kind of assay: Inhibition of FAAH.
Details: not given
As usually defined, the Ki is a measure of affinity in units of concentration, obtained from inhibition or displacement. Consider `CCCCCCCC/C=C\CCCCCCC(=O)c1ncco1`, for which the Ki is 17 nM.

Molecule `CCCCCCCC/C=C\CCCCCCCC(C)=O` displayed a Ki of more than 100000 nM.

Molecule `CCCCCCCC/C=C\CCCCCCC(=O)c1nc2cccc(C)c2o1` yielded a Ki of 13000 nM.

As for `O=C(CCCCOCc1ccccc1)c1ncc(-c2ccccn2)o1`, the affinity corresponds to a Ki of 55 nM.

For `O=C(CCCCCc1ccccc1)c1nc2ncccc2o1`, the Ki was found to be 0.2 nM.

`CCCCCCCC/C=C\CCCCCCC(=O)c1nnn(C)n1` yielded a Ki of 65 nM.

In the case of `O=C(CCCCCCc1ccccc1)c1nnc(-c2ccccn2)[nH]1`, the Ki is more than 10000 nM.

For `CCCCCCCC/C=C\CCCCCCC(=O)c1nc2ccncc2o1`, affinity was put at a Ki of 3.7 nM.

Regarding `CN(CCCCC(=O)c1ncc(-c2ccccn2)o1)Cc1ccccc1`, the inhibitory constant (Ki) came out at 200 nM.

The molecule `CCCCCCC(C)OC(=O)CC(=O)CBr` (configuration not stated) came in with a Ki of 820 nM.

On to `CCCCCCCC/C=C\CCCCCCCC(=O)C(F)(F)F`, for which the affinity, expressed as Ki, was 12 nM.

`O=C(CCCCCCc1ccccc1)C(F)(F)F` showed a Ki of 100 nM.

Turning to `O=C(CCCCCCc1ccccc1)c1nc2ncccc2o1`, the affinity, expressed as Ki, was 0.28 nM.

In the case of `O=C(CCCCCCc1ccccc1)c1nnn(-c2ccccn2)n1`, the Ki was 1.1 nM.

For the molecule `O=C(CCCCSCc1ccccc1)c1ncc(-c2ccccn2)o1`, affinity was put at a Ki of 25 nM.

In the case of `O=C(CCCCCCCCc1ccccc1)c1nc2ncccc2o1`, the Ki was found to be 0.52 nM.

Regarding `CCCCCCCC/C=C\CCCCCCC(=O)c1nc2cc(C)ccc2o1`, the Ki is more than 100000 nM.

`CCCCCCCC/C=C\CCCCCCC(=O)c1nc(-c2ccccn2)co1` yielded a Ki of 31 nM.

`CCCCCCCC/C=C\CCCCCCC(=O)c1ncc(-c2ccccn2)o1` came in with a Ki of 18 nM.

With `CCCCCCC(=O)C(F)(F)F`, affinity was put at a Ki of 10700 nM.

`CCCCCCCC(=O)C(F)(F)F`: the Ki amounted to 1200 nM.

For `CCCCCCCC/C=C\CCCCCCC(=O)c1nccn1C`, the Ki was more than 100000 nM.

Regarding `CCCCCC(=O)C(F)(F)F`, the Ki stood at 28900 nM.

The molecule `CCCCCCCC/C=C\CCCCCCC(=O)c1nccs1` had a Ki of more than 100000 nM.

`O=C(CCCC[S+]([O-])Cc1ccccc1)c1ncc(-c2ccccn2)o1` (configuration not stated): the Ki is 2500 nM.

The molecule `CCCCCCCC/C=C\CCCCCCC(=O)c1nc2ccccc2o1` returned a Ki of 370 nM.

`CCCCCCCCCCCCCCCCCC(=O)C(F)(F)F`: the Ki was 240 nM.

Molecule `CCCCCCCC/C=C\CCCCCCCC(O)C(N)=O` (configuration not stated) yielded a Ki of more than 100000 nM.

In the case of `CCCCCCCCCC(=O)C(F)(F)F`, the Ki came out at 130 nM.

`CCCCCCCC/C=C\CCCCCCC(=O)c1nc2ncccc2o1` came in with a Ki of 2.3 nM.

As to `O=C(CCc1ccc(COc2ccccc2)cc1)c1ncc(-c2ccccn2)o1`, affinity was put at a Ki of 1 nM.

Regarding `CCCCCCCC/C=C\CCCCCCCC(=O)C(=O)OCC`, the Ki was found to be 9 nM.

`CCCCCCCC/C=C\CCCCCCC(=O)c1nc2cnccc2o1` yielded a Ki of 7.2 nM.

For the molecule `CCCCCCCC/C=C\CCCCCCC(=O)c1nc2ccc(C)cc2o1`, the Ki was more than 100000 nM.

The molecule `CCCCCCCC/C=C\CCCCCCC(=O)c1nc(-c2ccccc2)c(-c2ccccc2)o1` displayed a Ki of more than 100000 nM.

Turning to `CCCCCCCC/C=C\CCCCCCC(=O)c1ccccc1`, the Ki is more than 100000 nM.

In the case of `CCCCCCCC/C=C\CCCCCCC(=O)c1ccccn1`, the Ki is more than 100000 nM.

Turning to `CCCCCCCC/C=C\CCCCCCCC=O` [OLEALDEHYDE], the affinity corresponds to a Ki of 190 nM.

`O=C(CCCCCCc1ccccc1)c1nnn[nH]1`: the Ki was more than 1000 nM.

For `O=C(CCCCS(=O)(=O)Cc1ccccc1)c1ncc(-c2ccccn2)o1`, the Ki was more than 10000 nM.

`CCCCCCCCCCCCCC(=O)C(F)(F)F` yielded a Ki of 490 nM.

In turn, `CCCCCCCC/C=C\CCCCCCC(=O)c1nnc(-c2ccccn2)o1` registered a Ki of 3000 nM.

In the case of `CCCCCCCC/C=C\CCCCCCC(=O)c1ncc(-c2ccncc2)o1`, the Ki is 56 nM.

On to `CCCCCCCC/C=C\CCCCCCC(=O)c1ncc(-c2cccnc2)o1`, for which the affinity, expressed as Ki, was 61 nM.

Turning to `CCCCCCCC/C=C\CCCCCCC(=O)c1nc2c(C)cccc2o1`, the Ki is more than 100000 nM.

`CCCCCCCC/C=C\CCCCCCC(=O)c1ncc(-c2ccco2)o1` yielded a Ki of 54 nM.

Turning to `O=C(O)c1cccc(CCCCCCC(=O)c2ncc(-c3ccccn3)o2)c1`, the Ki is more than 600 nM.

Take `CCCCCCCC/C=C\CCCCCCC(=O)c1nc2cccnc2o1`: affinity was put at a Ki of 11 nM.

`CCCCCCCC/C=C\CCCCCCC(=O)c1ncc(-c2ccsc2)o1` registered a Ki of 13200 nM.

Regarding `O=C(CCCCc1ccccc1)c1nc2ncccc2o1`, the affinity, expressed as Ki, was 0.3 nM.

`CCCCCCCC/C=C\CCCCCCC(=O)c1cccnn1` had a Ki of 130 nM.

`CCCCCCCCCCCC(=O)C(F)(F)F`: the affinity corresponds to a Ki of 140 nM.

The molecule `CCCCCCCC/C=C\CCCCCCC(=O)c1ncc(-c2ccccc2)o1` yielded a Ki of 320 nM.

`CCCCCCCC/C=C\CCCCCCCC(=O)CCl` came in with a Ki of 700 nM.

Molecule `O=C(CCCc1ccccc1)c1nc2ncccc2o1` registered a Ki of 6.9 nM.

`CCCCCCCC/C=C\CCCCCCCC(=O)O` [OLEIC ACID] showed a Ki of 6000 nM.

Turning to `O=C(CCCCCCc1cccc(Cl)c1)c1ncc(-c2ccccn2)o1`, the affinity, expressed as Ki, was 0.9 nM.

`N#Cc1cnc(C(=O)CCc2ccc(-c3ccccc3)cc2)o1` gave a Ki of 0.2 nM.

On to `CCCCCCCC/C=C\CCCCCCC(=O)c1ncc(-c2ccoc2)o1`, for which the Ki was determined as 610 nM.

On to `CCCCCCCC/C=C\CCCCCCCC(OC)OC`, for which the Ki was more than 300000 nM.

Take `CCCCCCCC/C=C\CCCCCCC(=O)c1ccncn1`: affinity was put at a Ki of 110 nM.

The molecule `O=C(CCCCCCCc1ccccc1)c1nc2ncccc2o1` gave a Ki of 0.39 nM.

The molecule `CCCCCCCC/C=C\CCCCCCCC(=O)C(N)=O` returned an inhibition constant Ki of 17 nM.

Regarding `O=C(CCCCCCc1ccccc1)c1nnc[nH]1`, the Ki is more than 1000 nM.

Still in this assay, the particulars now being: read-out: IC50.
With `NC(=O)c1cccc(-c2cccc(OC(=O)NCc3ccc4ccccc4c3)c2)c1`, the IC50 was found to be 0.63 nM.

Consider `CCOC(=O)CCCc1ccc(-n2c(CC)nc(-c3ccccc3)c2-c2ccccc2)cc1`, for which the IC50 is 64 nM.

`CCCCC/C=C\C/C=C\C/C=C\C/C=C\CCCC(=O)NCCO` [ANANDAMIDE]: the IC50 came to 3400 nM.

In the case of `OB(O)c1ccc(Oc2ccccc2)cc1`, the IC50 was less than 10 nM.

As to `CCCCC/C=C\C/C=C\C/C=C\C/C=C\CCCC(=O)O` [ARACHIDONIC ACID], the IC50 was more than 100000 nM.

As to `O=C(NC1CCCC1)Oc1cccc(C(=O)c2nc3ccccc3o2)c1`, the IC50 is 28000 nM.

With `CNC(=O)COC(=O)N1CCC(CCc2ccc(Cl)cc2)CC1`, the IC50 was 13 nM.

As to `CCCCC/C=C\C/C=C\C/C=C\C/C=C\CCCC(=O)NCCCl`, the IC50 was determined as 900 nM.

Regarding `CCCCC/C=C\C/C=C\C/C=C\C/C=C\CCCNC(=O)NCc1ccc(OC)c(O)c1`, the IC50 stood at 2000 nM.

In the case of `CCCCC/C=C\C/C=C\C/C=C\C/C=C\CCCC(=O)Nc1cccnc1`, the IC50 turned out to be 1200 nM.

Consider `O=C(NC1CCCC1)Oc1cccc(C(=O)c2nc3ccccc3s2)c1`, for which the IC50 came to 47000 nM.

With `CC(C)c1cccc(CN2CCC(CCCC(=O)c3ncco3)CC2)c1`, the IC50 stood at 3.6 nM.

For the molecule `CCCCC/C=C\C/C=C\C/C=C\C/C=C\CCCC(=O)NC12CC3CC(CC(C3)C1)C2`, the IC50 was 37400 nM.

As for `O=C(Nc1cccc(C(=O)c2nc3ccccc3o2)c1)NC1CCCC1`, the IC50 was more than 300000 nM.

`CCCCC/C=C\C/C=C\C/C=C\C/C=C\CCCC(=O)NCC1CC1`: the IC50 was 1400 nM.

Still in this assay, the particulars now being: read-out: pIC50 (converted).
With `CCCCCCCCCCCCCCCC(=O)NCCCCl`, the IC50 is 2510 nM.

For the molecule `CCCCCCCCCCCCCCN1C(=O)C(c2ccccc2)(c2ccccc2)NC1=S`, the IC50 is 1150 nM.

Consider `C=CCNC(=O)CCCCCCCCCCCCCCC` [HEXADECANOIC ACID ALLYLAMIDE], for which the IC50 is 3390 nM.

In the case of `CCCCCCCCCCCCCCCC(=O)NCC`, the IC50 is 3550 nM.

On to `CCCCCCCCCCCCCCCC(=O)NCCBr`, for which the IC50 is 3550 nM.

Consider `CCCCCCCCCCCCCCCC(=O)NCCCl`, for which the IC50 was 2630 nM.

For the molecule `CCCCCCCCCCCCCCCC(=O)NCCCO` [N-(3-HYDROXYPROPYL)PALMITAMIDE], the IC50 was 3800 nM.

The target in the next assay is T1, Fatty-acid amide hydrolase 1. Kind of assay: Inhibition of human FAAH.
Details: not given
Molecule `O=C(NC1CCCCC1)Oc1cccc(-c2ccccc2)c1` gave an IC50 of 63 nM.

Take `O=C(NC1CCCCC1)Oc1ccc2ccccc2c1`: the IC50 was 324 nM.

`NC(=O)c1cccc(-c2cccc(OC(=O)NCCCCCCc3ccccc3)c2)c1`: the IC50 stood at 14 nM.

The molecule `O=C(NCC1CCCCC1)Oc1ccc(C(=O)O)cc1` returned an IC50 of less than 100 nM.

`CNC(=O)Oc1cccc2ccccc12` [CARBARIL] showed an IC50 of more than 30000 nM.

The molecule `CCCCCCCC/C=C\CCCCCCCNC(=O)Oc1cccc(-c2cccc(C(N)=O)c2)c1` came in with an IC50 of 58 nM.
